Reference: patent US7855205B2, “Pyrimidinyl substituted fused-pyrrolyl compounds useful in treating kinase disorders” (Janssen Pharmaceutica NV, priority 2004, dated 2010)

Key:
[1] = tested on: A375 malignant melanoma; experiment: Inhibition of cell proliferation (14C-thymidine incorporation), A375; type: cell-based, human; settings: Homo sapiens, A-375
In short: (§1)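 Cells (3000-8000/well) grown 24 h at 37° C, 5% CO2, then given compound in DMSO for 24 h before adding methyl 14C-thymidine (0.2 uCi/well) for a further 24 h with drug. After PBS washes, incorporation into DNA counted by scintillation.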

[2] = target: T1, Aurora-A (Mus musculus, UniProt P97477); experiment: Aurora-A Screening Assay; type: biochemical, murine; settings: 33P-γ-ATP incorporation, 10 μM ATP
T1 construct: made in house; host or cells: sf9 insect cells
T1 sequence (P97477 1-395): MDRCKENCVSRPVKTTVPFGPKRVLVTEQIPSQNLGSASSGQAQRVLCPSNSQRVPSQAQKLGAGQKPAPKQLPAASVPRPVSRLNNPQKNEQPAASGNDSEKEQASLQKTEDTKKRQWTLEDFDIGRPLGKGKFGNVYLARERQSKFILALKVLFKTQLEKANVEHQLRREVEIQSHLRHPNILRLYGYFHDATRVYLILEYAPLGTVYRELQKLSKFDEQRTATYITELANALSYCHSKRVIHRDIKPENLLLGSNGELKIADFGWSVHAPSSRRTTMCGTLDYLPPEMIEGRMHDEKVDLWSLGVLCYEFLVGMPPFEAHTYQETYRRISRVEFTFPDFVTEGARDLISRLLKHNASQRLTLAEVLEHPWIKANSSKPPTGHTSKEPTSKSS

[3] = target: T2, HER2 (Homo sapiens, UniProt P04626); experiment: HER2 kinase Screening Assay; type: biochemical; settings: 33P-γ-ATP incorporation, 10 μM ATP
T2 construct: polyhistidine (N)

[4] = tested on: HeLa cervical adenocarcinoma; experiment: Inhibition of cell proliferation (14C-thymidine incorporation), HeLa; type: cell-based; settings: Homo sapiens;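 further: HeLa cells in 96-well scintillating plates, compound for 24 h then 24 h more with 14C-thymidine, counting label built into new DNA against DMSO-only control wells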
[5] = target: T3, CDK1:Cyclin-B (Homo sapiens, UniProt P06493); experiment: CDK1 Screening Assay; type: biochemical; settings: 33P-γ-ATP incorporation, 10 μM ATP
T3 construct: purchased New England Biolabs, Beverly, Mass; 6020; host or cells: insect cells
In short: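 Human CDK1/cyclin B co-expressed in insect cells (30 ng/well) in 50 mM Tris pH 8, 10 mM MgCl2, with 10 μM ATP, 33P-γ-ATP and 0.025 μM biotinylated histone H1 peptide (reaction-mix levels); 1% DMSO final. 1 h at 30° C. 33P incorporation into streptavidin-captured peptide by scintillation counting.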

[6] = target: T4, VEGF-R2 (Rattus norvegicus, UniProt O08775); experiment: VEGF-R2 Screening Assay; type: biochemical; settings: 33P-γ-ATP incorporation, 10 μM ATP
T4 construct: polyhistidine (N)
In short: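 The N-terminally His-tagged rat VEGF-R2 kinase domain (aa 786-1343), diluted in 50 mM Tris-HCl pH 8.0 with 0.1% BSA, phosphorylated a biotinylated histone-H1 peptide with 33P-γ-ATP on Flashplates for 1 h at 30 °C in 1% DMSO. After washes with EDTA/PBS, immobilized 33P was counted by scintillation.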

[7] = tested on: HCT-116 colon carcinoma; experiment: Inhibition of cell proliferation (14C-thymidine incorporation), HCT-116; type: cell-based; settings: Homo sapiens, HCT-116, HCT116
In short: as §1

[8] = target: T5, RET (Homo sapiens, UniProt P07949); experiment: RET Kinase Screening Assay; type: biochemical; settings: 33P-γ-ATP incorporation, 10 μM ATP
T5 construct: the RET cytoplasmic domain consisting of the last 492 amino acids of the intracellular domain of the RET tyrosine kinase; histidine tag (N); made in house; host or cells: Hi5 insect cells
T5 sequence (P07949 658-1114 limits assumed): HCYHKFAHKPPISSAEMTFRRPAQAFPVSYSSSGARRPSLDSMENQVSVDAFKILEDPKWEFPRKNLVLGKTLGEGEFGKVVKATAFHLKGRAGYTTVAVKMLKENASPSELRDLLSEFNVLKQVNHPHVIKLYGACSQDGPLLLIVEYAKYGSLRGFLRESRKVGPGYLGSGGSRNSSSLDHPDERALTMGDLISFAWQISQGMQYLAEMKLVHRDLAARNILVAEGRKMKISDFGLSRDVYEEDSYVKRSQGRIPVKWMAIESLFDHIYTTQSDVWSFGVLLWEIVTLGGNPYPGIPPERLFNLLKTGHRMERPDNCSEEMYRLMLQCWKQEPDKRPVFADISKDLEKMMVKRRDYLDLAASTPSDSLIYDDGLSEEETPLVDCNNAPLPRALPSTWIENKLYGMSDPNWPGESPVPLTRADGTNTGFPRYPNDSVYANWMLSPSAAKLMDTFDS

T2 sequence (P04626 676-1255 limits assumed): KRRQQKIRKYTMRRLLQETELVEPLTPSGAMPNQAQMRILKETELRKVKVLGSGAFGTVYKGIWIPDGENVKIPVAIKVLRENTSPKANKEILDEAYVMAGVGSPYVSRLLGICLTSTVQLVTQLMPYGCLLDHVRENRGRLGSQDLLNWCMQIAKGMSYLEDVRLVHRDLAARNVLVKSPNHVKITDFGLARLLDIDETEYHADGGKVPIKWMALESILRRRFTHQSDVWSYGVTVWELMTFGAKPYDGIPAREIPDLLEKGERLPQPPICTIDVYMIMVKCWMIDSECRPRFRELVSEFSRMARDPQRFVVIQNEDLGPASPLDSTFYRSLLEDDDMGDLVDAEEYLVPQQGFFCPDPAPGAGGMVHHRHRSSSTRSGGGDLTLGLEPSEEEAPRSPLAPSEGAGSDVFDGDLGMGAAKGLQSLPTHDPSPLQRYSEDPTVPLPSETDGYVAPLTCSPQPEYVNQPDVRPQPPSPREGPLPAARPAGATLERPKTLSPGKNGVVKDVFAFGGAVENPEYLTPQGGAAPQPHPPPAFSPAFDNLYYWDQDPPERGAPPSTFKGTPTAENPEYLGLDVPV
T3 sequence (P06493 whole entry): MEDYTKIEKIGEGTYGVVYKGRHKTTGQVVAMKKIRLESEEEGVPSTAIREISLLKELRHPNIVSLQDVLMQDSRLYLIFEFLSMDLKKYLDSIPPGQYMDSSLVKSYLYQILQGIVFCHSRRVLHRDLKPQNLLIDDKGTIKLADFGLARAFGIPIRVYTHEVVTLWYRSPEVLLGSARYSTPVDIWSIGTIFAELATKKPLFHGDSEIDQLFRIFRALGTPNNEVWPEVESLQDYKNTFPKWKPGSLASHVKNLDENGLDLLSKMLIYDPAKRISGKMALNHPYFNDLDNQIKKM
T3 sequence (P14635 whole entry partner): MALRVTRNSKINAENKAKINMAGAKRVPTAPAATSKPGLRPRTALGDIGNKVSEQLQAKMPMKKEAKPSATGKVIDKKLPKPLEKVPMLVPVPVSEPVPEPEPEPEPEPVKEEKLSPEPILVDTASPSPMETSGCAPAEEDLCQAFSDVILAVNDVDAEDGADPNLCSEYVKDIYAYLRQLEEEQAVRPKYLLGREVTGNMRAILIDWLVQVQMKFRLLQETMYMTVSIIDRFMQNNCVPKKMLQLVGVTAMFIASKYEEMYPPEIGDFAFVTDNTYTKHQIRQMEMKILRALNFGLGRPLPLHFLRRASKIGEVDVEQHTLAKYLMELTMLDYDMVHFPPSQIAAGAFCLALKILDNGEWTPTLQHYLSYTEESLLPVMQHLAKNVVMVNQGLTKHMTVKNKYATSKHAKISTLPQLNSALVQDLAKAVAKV
T4 sequence (O08775 786-1343): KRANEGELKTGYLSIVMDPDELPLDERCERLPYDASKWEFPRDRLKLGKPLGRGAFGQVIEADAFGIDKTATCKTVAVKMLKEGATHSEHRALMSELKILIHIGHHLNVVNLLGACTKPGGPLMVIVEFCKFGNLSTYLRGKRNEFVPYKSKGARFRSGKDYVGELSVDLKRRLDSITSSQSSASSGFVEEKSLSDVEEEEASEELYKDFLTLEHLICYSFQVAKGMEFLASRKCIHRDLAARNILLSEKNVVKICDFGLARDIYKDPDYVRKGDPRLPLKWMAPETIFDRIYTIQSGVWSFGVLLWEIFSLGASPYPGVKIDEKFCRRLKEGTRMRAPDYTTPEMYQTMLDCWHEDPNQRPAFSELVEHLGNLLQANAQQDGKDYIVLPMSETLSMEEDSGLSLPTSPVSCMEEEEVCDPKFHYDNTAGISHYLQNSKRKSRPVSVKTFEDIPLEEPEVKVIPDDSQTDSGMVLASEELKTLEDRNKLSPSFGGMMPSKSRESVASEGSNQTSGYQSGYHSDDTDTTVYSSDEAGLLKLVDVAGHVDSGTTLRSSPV

SMILES	IC50 [1] [µM]	IC50 [2] [µM]	IC50 [3] [µM]	IC50 [4] [µM]	IC50 [5] [µM]	IC50 [6] [µM]	IC50 [7] [µM]	IC50 [8] [µM]
CCN(CC)CCc1ccc(Nc2nccc(-c3c[nH]c4ncccc34)n2)cc1 [Cpd 24, [4-(2-Diethylamino-ethyl)-phenyl]-[4-(1H-pyrrolo[2,3-b]pyridin-3-yl)-pyrimidin-2-yl]-amine]	0.031	0.244	0.009	0.034	0.028	0.089	0.018	–
OCCc1ccc(Nc2nccc(-c3c[nH]c4ncccc34)n2)cc1 [Cpd 1, 2-{4-[4-(1H-Pyrrolo[2,3-b]pyridin-3-yl)-pyrimidin-2-ylamino]-phenyl}-ethanol]	0.066	0.159	0.008	0.056	0.019	0.087	0.022	0.337
CCNCCc1ccc(Nc2nccc(-c3c[nH]c4ncccc34)n2)cc1 [Cpd 26, [4-(2-Ethylamino-ethyl)-phenyl]-[4-(1H-pyrrolo[2,3-b]pyridin-3-yl)-pyrimidin-2-yl]-amine]	0.0222	0.157	0.006	0.026	0.014	0.094	0.0135	–
c1cnc2[nH]cc(-c3ccnc(Nc4ccc(CCN5CCOCC5)cc4)n3)c2c1 [Cpd 22, [4-(2-Morpholin-4-yl-ethyl)-phenyl]-[4-(1H-pyrrolo[2,3-b]pyridin-3-yl)-pyrimidin-2-yl]-amine]	0.055	0.173	0.011	0.035	0.074	0.084	0.018	0.587
COc1cc(Nc2nccc(-c3c[nH]c4ncccc34)n2)cc(OC)c1OC [Cpd 2, [4-(1H-Pyrrolo[2,3-b]pyridin-3-yl)-pyrimidin-2-yl]-(3,4,5-trimethoxy-phenyl)-amine]	0.75	0.063	0.206	0.33	0.169	0.046	0.56	–
c1ccc(Nc2nccc(-c3c[nH]c4ncccc34)n2)cc1 [Cpd 3, Phenyl-[4-(1H-pyrrolo[2,3-b]pyridin-3-yl)-pyrimidin-2-yl]-amine]	0.468	0.159	0.032	0.382	0.054	0.213	0.26	1
c1cnc2[nH]cc(-c3ccnc(Nc4ccc(CCN5CCCC5)cc4)n3)c2c1 [Cpd 19, [4-(2-Pyrrolidin-1-yl-ethyl)-phenyl]-[4-(1H-pyrrolo[2,3-b]pyridin-3-yl)-pyrimidin-2-yl]-amine]	0.021	0.162	0.011	0.029	0.032	0.065	0.013	–
OCCOc1ccc(Nc2nccc(-c3c[nH]c4ncccc34)n2)cc1 [Cpd 4, 2-{4-[4-(1H-Pyrrolo[2,3-b]pyridin-3-yl)-pyrimidin-2-ylamino]-phenoxy}-ethanol]	0.061	0.173	0.01	0.062	0.021	0.01	0.062	1.41
CN(C)CCc1ccc(Nc2nccc(-c3c[nH]c4ncccc34)n2)cc1 [Cpd 23, [4-(2-Dimethylamino-ethyl)-phenyl]-[4-(1H-pyrrolo[2,3-b]pyridin-3-yl)-pyrimidin-2-yl]-amine]	0.024	0.257	0.012	0.03	0.039	0.066	0.025	–
c1cnc2[nH]cc(-c3ccnc(Nc4ccc(CCN5CCNCC5)cc4)n3)c2c1 [Cpd 20, [4-(2-piperazin-1-yl-ethyl)-phenyl]-[4-(1H-pyrrolo[2,3-b]pyridin-3-yl)-pyrimidin-2-yl]-amine]	0.11	0.253	0.025	0.14	0.134	0.186	0.037	0.892
CNCCc1ccc(Nc2nccc(-c3c[nH]c4ncccc34)n2)cc1 [Cpd 25, [4-(2-Methylamino-ethyl)-phenyl]-[4-(1H-pyrrolo[2,3-b]pyridin-3-yl)-pyrimidin-2-yl]-amine]	0.04	0.182	0.012	0.062	0.051	0.093	0.068	–
CN1CCN(CCc2ccc(Nc3nccc(-c4c[nH]c5ncccc45)n3)cc2)CC1 [Cpd 21, {4-[2-(4-Methyl-piperazin-1-yl)-ethyl]-phenyl}-[4-(1H-pyrrolo[2,3-b]pyridin-3-yl)-pyrimidin-2-yl]-amine]	0.0295	0.197	0.009	0.0315	0.068	0.075	0.0159	–
